Results as given in patent US20110028447A1, “INDAZOLE DERIVATIVES” (Pfizer Inc., priority 2008, published 2011).
Where two headings read alike, the source gives them in different places.

Assays:
human CB1 receptor [1] = target: T1, human CB1 receptor (Homo sapiens, UniProt P21554); assay: [35S] GTPγS binding on membranes of CHO cells expressing the human CB1 receptor (agonism); format: biochemical; parameters: expressed in transfected cells; membrane preparation
Summary of the method: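 Membranes from human CB1-expressing CHO cells (5 μg/well) incubated with test compound and [35S]GTPγS in 50 mM Tris pH 7.4, 100 mM NaCl, 3 mM MgCl2, 0.2 mM EGTA, 0.04% BSA for 45 min at 37 °C. Bound label collected by filtration, scintillation counted; EC50 from curve fits.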

human CB1 receptor [2] = target: T1, human CB1 receptor; assay: Human CB1 receptor binding, [3H] CP-55,940 displacement on HEK cell membranes; parameters: expressed in transfected cells; host or cells: HEK cells, doxycycline-induced; membrane preparation
Summary of the method: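 Radioligand displacement: [3H] CP-55,940 at […] final, 1 μg membrane protein per well from HEK cells with tetracycline-inducible human CB1, 60 min at room temperature, pH 7.4 Tris/NaCl/MgCl2/EGTA/BSA buffer. 50 μM WIN-55,212-2 set nonspecific binding; bound label filtered, counted, and fitted for EC50 and Ki values.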

[3] = GTPγS EC50, human CB1, CHO cell membranes
[4] = human CB1, CHO cell membranes, read-out: GTPγS EC50

T1 sequence (P21554 whole entry): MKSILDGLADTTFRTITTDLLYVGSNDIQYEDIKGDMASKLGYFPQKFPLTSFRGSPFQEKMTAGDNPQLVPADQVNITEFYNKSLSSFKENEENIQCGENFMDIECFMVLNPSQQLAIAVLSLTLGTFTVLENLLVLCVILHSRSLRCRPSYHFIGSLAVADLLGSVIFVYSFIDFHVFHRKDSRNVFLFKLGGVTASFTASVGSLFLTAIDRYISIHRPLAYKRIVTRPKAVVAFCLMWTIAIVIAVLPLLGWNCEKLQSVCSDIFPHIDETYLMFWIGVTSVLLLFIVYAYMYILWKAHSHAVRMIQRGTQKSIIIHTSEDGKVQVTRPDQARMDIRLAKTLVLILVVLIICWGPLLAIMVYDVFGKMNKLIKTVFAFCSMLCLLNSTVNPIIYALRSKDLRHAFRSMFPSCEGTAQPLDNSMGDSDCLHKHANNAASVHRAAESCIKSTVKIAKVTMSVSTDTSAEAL

Row | SMILES | EC50 (human CB1 receptor [1]; [3]) [nM] | Ki (human CB1 receptor [2]; CB1 Ki) [nM] | EC50 (human CB1 receptor [1]; [4]) [nM] | Ki (human CB1 receptor [2]; read-out: CB1 Ki) [nM]
1 | CC(C)(C)[C@H](NC(=O)c1nn(Cc2ccc(F)cc2)c2ccccc12)C(=O)N1CCOCC1 [Example 242] | 3.37 | 0.36 | – | –
2 | CC(C)(C)[C@H](NC(=O)c1nn(Cc2ccc(C#N)cc2)c2ccccc12)C(=O)N1CCOCC1 [Example 243] | 91.3 | 11.3 | – | –
3 | CC(C)(C)[C@H](NC(=O)c1nn(Cc2ccc(F)cc2)c2ccccc12)C(=O)N1CCN(S(C)(=O)=O)CC1 [Example 244] | – | – | 16.2 | 2.42
4 | CC(C)(C)[C@H](NC(=O)c1nn(Cc2ccc(F)cc2)c2ccccc12)C(=O)N1CCN(S(=O)(=O)C2CC2)CC1 [Example 245] | – | – | 12.4 | 2.61
5 | CC(C)(C)[C@H](NC(=O)c1nn(Cc2ccc(F)cc2)c2ccccc12)C(=O)N[C@H](CO)C(N)=O [Example 246] | 69 | 6.58 | – | –
6 | CC(C)(C)[C@H](NC(=O)c1nn(Cc2ccc(F)cc2)c2ccccc12)C(=O)N1C[C@@H](O)[C@H](O)C1 [Example 247] | 0.95 | 0.65 | – | –
7 | CC(C)(C)[C@H](NC(=O)c1nn(Cc2ccc(F)cc2)c2ccccc12)C(=O)N1CCOC(CO)C1 (stereo partly drawn) [Example 249] | 16.3 | 2.51 | – | –
8 | CC(C)(C)[C@H](NC(=O)c1nn(Cc2ccc(F)cc2)c2ccccc12)C(=O)NC[C@H]1CCCC[C@H]1O [Example 250] | – | – | 18.1 | 3.72
9 | CC(C)(C)[C@H](NC(=O)c1nn(Cc2ccc(F)cc2)c2ccccc12)C(=O)N1CCCC(O)C1 (stereo partly drawn) [Example 251] | 2.33 | 0.51 | – | –
10 | CC(C)(C)[C@H](NC(=O)c1nn(Cc2ccc(F)cc2)c2ccccc12)C(=O)NC[C@H]1CCCC[C@@H]1O [Example 253] | – | – | 26 | 4.5
11 | CC(C)(C)[C@H](NC(=O)c1nn(Cc2ccc(C(F)(F)F)cc2)c2ccccc12)C(N)=O [Example 254] | 153 | 12.3 | – | –
12 | CC(C)(C)[C@H](NC(=O)c1nn(Cc2ccc(C(F)(F)F)cc2)c2ccccc12)C(=O)NCCO [Example 255] | 130 | 13.1 | – | –
13 | CC(C)(C)[C@H](NC(=O)c1nn(Cc2ccc(F)cc2)c2ccccc12)C(=O)N1CCN(CC(N)=O)CC1 [Example 262] | – | – | 38.9 | 8.25
14 | CC(C)(C)[C@H](NC(=O)c1nn(Cc2ccccc2)c2ccccc12)C(=O)NCCNS(=O)(=O)c1ccc(C#N)cc1 [Example 263] | – | – | 100 | 8.36
15 | CC(C)(C)[C@H](NC(=O)c1nn(Cc2ccc(C#N)cc2)c2ccccc12)C(=O)NCCNS(=O)(=O)c1ccc(C#N)cc1 [Example 264] | – | – | 103 | 6.75
16 | CC(C)(C)[C@H](NC(=O)c1nn(Cc2ccc(C#N)cc2F)c2ccccc12)C(=O)NCCNS(=O)(=O)c1ccc(C#N)cc1 [Example 265] | – | – | 82 | 13.1
17 | CC(C)(C)[C@H](NC(=O)c1nn(Cc2ccc(F)cc2)c2ccccc12)C(=O)NCCNS(=O)(=O)c1ccc(C#N)cc1 [Example 266] | – | – | 4.34 | 0.94
18 | CC(C)(C)[C@H](NC(=O)c1nn(Cc2ccc(F)cc2)c2ccccc12)C(=O)NCC#N [Example 270] | 2.62 | 0.76 | – | –
19 | CC(C)(C)[C@H](NC(=O)c1nn(Cc2ccc(F)cc2)c2ccccc12)C(=O)NCCC#N [Example 271] | 24.9 | 2.91 | – | –
20 | CC(C)(C)[C@H](NC(=O)c1nn(Cc2ccc(F)cc2)c2ccccc12)C(=O)NC1CCOC1 (stereo partly drawn) [Example 281] | 37.4 | 4.83 | – | –
21 | CC(C)(C)[C@H](NC(=O)c1nn(Cc2ccc(F)cc2)c2c(F)c(F)ccc12)C(N)=O [Example 282] | 0.78 | 0.17 | – | –

Row | SMILES | EC50 (human CB1 receptor [1]; [3]) [nM] | Ki (human CB1 receptor [2]; CB1 Ki) [nM] | EC50 (human CB1 receptor [1]; [4]) [nM] | Ki (human CB1 receptor [2]; read-out: CB1 Ki) [nM]
22 | CC(C)(C)[C@H](NC(=O)c1nn(Cc2ccc(F)cc2)c2ccccc12)C(=O)N1C[C@@H](O)[C@@H](O)C1 [Example 284] | 12.3 | 1.03 | – | –
23 | CC(C)(C)[C@H](NC(=O)c1nn(Cc2ccc(C#N)cc2)c2c(F)cccc12)C(=O)N[C@@H]1CCc2ccccc21 [Example 286] | – | – | 36.1 | 5.74
24 | CC(C)(C)[C@H](NC(=O)c1nn(Cc2ccc(F)cc2)c2ccccc12)C(=O)N[C@H]1CC[C@@H](O)C1 [Example 288] | 9.53 | 1.18 | – | –
25 | CC(C)(C)[C@H](NC(=O)c1nn(Cc2ccc(F)cc2)c2ccccc12)C(=O)N[C@@H]1CC[C@@H](O)C1 [Example 289] | 35.8 | 5.13 | – | –
26 | CC(C)(C)[C@H](NC(=O)c1nn(Cc2ccc(F)cc2)c2ccccc12)C(=O)N1CCC[C@H]1C(N)=O [Example 292] | 19 | 5.25 | – | –
27 | CC(C)(C)[C@H](NC(=O)c1nn(Cc2ccc(C#N)cc2)c2cc(F)ccc12)C(=O)NCCO [Example 295] | 64.3 | 9.17 | – | –
28 | CC(C)(C)[C@H](NC(=O)c1nn(Cc2ccc(C#N)cc2)c2cc(F)ccc12)C(=O)NC1CC1 [Example 299] | 23.8 | 8.56 | – | –
29 | CC(C)(C)[C@H](NC(=O)c1nn(Cc2ccc(C#N)cc2)c2cc(F)ccc12)C(N)=O [Example 300] | 121 | 5.85 | – | –
30 | CC(C)NC(=O)OC1CCN(C(=O)[C@@H](NC(=O)c2nn(Cc3ccc(F)cc3)c3ccccc23)C(C)(C)C)CC1 [Example 302] | – | – | 33.1 | 5.41
31 | CCNC(=O)OC1CCN(C(=O)[C@@H](NC(=O)c2nn(Cc3ccc(F)cc3)c3ccccc23)C(C)(C)C)CC1 [Example 303] | – | – | 11 | 2.27
32 | CC(C)(C)[C@H](NC(=O)c1nn(Cc2ccc(F)cc2)c2ccccc12)C(=O)NCC1=NCCN1 [Example 305] | 86.4 | 18 | – | –
33 | CC(C)(C)[C@H](NC(=O)c1nn(Cc2ccc(F)cc2)c2ccccc12)C(=O)N1CCC[C@H]1CO [Example 306] | 1.39 | 0.78 | – | –
34 | CC(C)(C)[C@H](NC(=O)c1nn(Cc2ccc(F)cc2)c2ccccc12)C(=O)N1CCC[C@@H]1CO [Example 307] | 1.56 | 1.27 | – | –
35 | CC(C)(C)[C@H](NC(=O)c1nn(Cc2ccc(C#N)cc2)c2ccccc12)C(=O)NCC(F)(F)F [Example 308] | 5.55 | 2.63 | – | –
36 | CC(C)(C)[C@H](NC(=O)c1nn(Cc2ccc(C#N)cc2)c2c(F)cccc12)C(=O)NCC(F)(F)F [Example 309] | 2.59 | 1.59 | – | –
37 | CC(C)(C)[C@H](NC(=O)c1nn(Cc2ccc(C#N)cc2)c2cc(F)ccc12)C(=O)NCC(F)(F)F [Example 310] | 2.1 | 1.48 | – | –
38 | CC(C)(C)[C@H](NC(=O)c1nn(Cc2ccc(F)cc2)c2ccccc12)C(=O)NCC1CNC(=O)O1 (stereo partly drawn) [Example 315] | 8.67 | 2.91 | – | –
39 | CC(=O)N1CCC(NC(=O)[C@@H](NC(=O)c2nn(Cc3ccc(F)cc3)c3ccccc23)C(C)(C)C)C1 (stereo partly drawn) [Example 320] | – | – | 63.2 | 12
40 | CC(C)(C)[C@H](NC(=O)c1nn(Cc2ccc(F)cc2)c2c(F)c(F)ccc12)C(=O)NCC(N)=O [Example 321] | 16.6 | 1.58 | – | –
41 | CC(C)(C)[C@H](NC(=O)c1nn(Cc2ccc(F)cc2)c2c(F)c(F)ccc12)C(=O)NC[C@@H](O)CO [Example 322] | 109 | 8.89 | – | –
42 | CC(C)(C)[C@H](NC(=O)c1nn(Cc2ccc(F)cc2)c2c(F)c(F)ccc12)C(=O)NC[C@H](O)CO [Example 323] | 22.5 | 2.99 | – | –
